Measured values from BigSolDB 2.1.

Conditions: in water

C=CCC
Conditions	solubility (mole fraction)
293.15 K	9.53e-05
295.15 K	8.78e-05
298.15 K	7.97e-05
300.15 K	7.44e-05
303.15 K	6.77e-05
305.15 K	6.42e-05
308.15 K	5.96e-05
310.15 K	5.56e-05
313.15 K	5.24e-05
315.15 K	4.9e-05
318.15 K	4.63e-05
320.15 K	4.42e-05
323.15 K	4.12e-05
